{
  "source": "patent US20100255580A1",
  "about": "“Differentiation of Human Embryonic Stem Cells” (LIFESCCAN, INC., priority 2007, published 2010)",
  "system": "H9 embryonic stem cells",
  "format": "cell-based, human",
  "conditions": "DE treatment in low serum",
  "method": "Controls for each group included cells plated on […]-coated dishes and cultured in MEF-conditioned medium or cells plated on MEFs and cultured in ES medium. All groups contained three biological replicates and each biological replicate was repeated on two separate gene chips.\nSample preparation, hybridization, and image analysis were performed according to the Affymetrix Human Genome U133 Plus 2.0 Array. Following normalization and a log transformation, data analysis was performed using OmniViz® software (MA) and […] (VizXLabs, WA). Significant differences in gene expression between the samples were evaluated using analysis of variance and an F-test with adjusted P-value (Benjamini and\nHochberg correction) of ≦b 0.05. Only genes with a present call in at least one group were included in the analysis.",
  "note": "Like-named read-outs stand apart in the source and are kept apart here.",
  "data": [
    {"substance": "Activin A: a member of the TGFβ superfamily; R&D Systems; Group 2 = Activin A (100 ng/ml)", "values": [
      {"measurement": "mean normalized intensity (log format), gene: DKFZP566K1924 protein", "setting": "on MATRIGEL", "result": 2.882},
      {"measurement": "mean normalized intensity (log format), gene: ESTs (r2006)", "setting": "on MATRIGEL", "result": 1.5857},
      {"measurement": "mean normalized intensity (log format), gene: ESTs (r2025)", "setting": "on MATRIGEL", "result": 1.531},
      {"measurement": "mean normalized intensity (log format), gene: ESTs (r2032)", "setting": "on MATRIGEL", "result": 0.1336},
      {"measurement": "mean normalized intensity (log format), gene: ESTs (r2038)", "setting": "on MATRIGEL", "result": 3.262},
      {"measurement": "mean normalized intensity (log format), gene: ESTs (r2134)", "setting": "on MATRIGEL", "result": "−1.3795"},
      {"measurement": "mean normalized intensity (log format), gene: ESTs (r2148)", "setting": "on MATRIGEL", "result": 4.454},
      {"measurement": "mean normalized intensity (log format), gene: ESTs, Moderately similar to ALU2_HUMAN ALU SUBFAMILY SB SEQUENCE CONTAMINATION WARNING ENTRY (H. sapiens)", "setting": "on MATRIGEL", "result": 4.241},
      {"measurement": "mean normalized intensity (log format), gene: H. sapiens mRNA for B-HLH DNA binding protein.", "setting": "on MATRIGEL", "result": 5.43},
      {"measurement": "mean normalized intensity (log format), gene: Homo sapiens BCL2-interacting killer (apoptosis-inducing) (BIK), mRNA.", "setting": "on MATRIGEL", "result": 4.3},
      {"measurement": "mean normalized intensity (log format), gene: Homo sapiens Charot-Leyden crystal protein (CLC), mRNA.", "setting": "on MATRIGEL", "result": 3.301},
      {"measurement": "mean normalized intensity (log format), gene: Homo sapiens HES-related repressor protein 1 HERP1 mRNA, complete cds.", "setting": "on MATRIGEL", "result": 2.806},
      {"measurement": "mean normalized intensity (log format), gene: Homo sapiens HSPC156 protein (HSPC156), mRNA.", "setting": "on MATRIGEL", "result": 0.7862},
      {"measurement": "mean normalized intensity (log format), gene: Homo sapiens KIAA0469 gene product (KIAA0469), mRNA.", "setting": "on MATRIGEL", "result": 4.031},
      {"measurement": "mean normalized intensity (log format), gene: Homo sapiens PNAS-123 mRNA, complete cds", "setting": "on MATRIGEL", "result": 1.597},
      {"measurement": "mean normalized intensity (log format), gene: Homo sapiens Wilms tumor 1 (WT1), transcript variant D, mRNA.", "setting": "on MATRIGEL", "result": 2.405},
      {"measurement": "mean normalized intensity (log format), gene: Homo sapiens cDNA FLJ11398 fis, clone HEMBA1000637.", "setting": "on MATRIGEL", "result": 2.5268},
      {"measurement": "mean normalized intensity (log format), gene: Homo sapiens cDNA: FLJ22547 fis, clone HSI00356", "setting": "on MATRIGEL", "result": 4.294},
      {"measurement": "mean normalized intensity (log format), gene: Homo sapiens cadherin 6, type 2, K-cadherin (fetal kidney) (CDH6), mRNA.", "setting": "on MATRIGEL", "result": 0.8248},
      {"measurement": "mean normalized intensity (log format), gene: Homo sapiens chorionic somatomammotropin hormone 2 (CSH2), transcript variant 1, mRNA.", "setting": "on MATRIGEL", "result": 1.124},
      {"measurement": "mean normalized intensity (log format), gene: Homo sapiens chorionic somatomammotropin hormone 2 (CSH2), transcript variant 4, mRNA.", "setting": "on MATRIGEL", "result": 0.8122},
      {"measurement": "mean normalized intensity (log format), gene: Homo sapiens galanin receptor 1 (GALR1), mRNA.", "setting": "on MATRIGEL", "result": 2.507},
      {"measurement": "mean normalized intensity (log format), gene: Homo sapiens growth hormone 2 (GH2), transcript variant 2, mRNA.", "setting": "on MATRIGEL", "result": 0.9226},
      {"measurement": "mean normalized intensity (log format), gene: Homo sapiens hypothetical protein FLJ20075 (FLJ20075), mRNA.", "setting": "on MATRIGEL", "result": "−0.3592"},
      {"measurement": "mean normalized intensity (log format), gene: Homo sapiens mRNA for SCCA2b, complete cds.", "setting": "on MATRIGEL", "result": 3.329},
      {"measurement": "mean normalized intensity (log format), gene: Homo sapiens mRNA; cDNA DKFZp586P1124 (from clone DKFZp586P1124)", "setting": "on MATRIGEL", "result": 0.4856},
      {"measurement": "mean normalized intensity (log format), gene: Homo sapiens methyl-CpG binding protein MBD2 (MBD2) mRNA, complete cds.", "setting": "on MATRIGEL", "result": 0.4906},
      {"measurement": "mean normalized intensity (log format), gene: Homo sapiens tachykinin, precursor 1 (TAC1), transcript variant beta, mRNA.", "setting": "on MATRIGEL", "result": 2.773},
      {"measurement": "mean normalized intensity (log format), gene: Homo sapiens testis expressed sequence 14 (TEX14), mRNA.", "setting": "on MATRIGEL", "result": 3.512},
      {"measurement": "mean normalized intensity (log format), gene: Homo sapiens, Similar to LIM homeobox protein 8, clone IMAGE: 4839343, mRNA.", "setting": "on MATRIGEL", "result": "−0.06288"},
      {"measurement": "mean normalized intensity (log format), gene: Homo sapiens, Similar to cadherin 6, type 2, K-cadherin (fetal kidney), clone MGC: 1470, mRNA, complete cds.", "setting": "on MATRIGEL", "result": 2.547},
      {"measurement": "mean normalized intensity (log format), gene: Homo sapiens, Similar to hypothetical protein FLJ10058, clone MGC: 34305 IMAGE: 5167647, mRNA, complete cds.", "setting": "on MATRIGEL", "result": 1.698},
      {"measurement": "mean normalized intensity (log format), gene: Homo sapiens, Similar to hypothetical protein FLJ32001, clone MGC: 39559 IMAGE: 4828136, mRNA, complete cds.", "setting": "on MATRIGEL", "result": 0.5207},
      {"measurement": "mean normalized intensity (log format), gene: Homo sapiens, clone IMAGE: 4067166, mRNA", "setting": "on MATRIGEL", "result": 0.1959},
      {"measurement": "mean normalized intensity (log format), gene: Homo sapiens, clone IMAGE: 4828836, mRNA.", "setting": "on MATRIGEL", "result": 0.9729},
      {"measurement": "mean normalized intensity (log format), gene: Homo sapiens, serine (or cysteine) proteinase inhibitor, clade B (ovalbumin), member 3, clone MGC: 12244, mRNA, complete cds.", "setting": "on MATRIGEL", "result": 1.969},
      {"measurement": "mean normalized intensity (log format), gene: Human mRNA upregulated during camptothecin-induced apoptosis of U937 cells.", "setting": "on MATRIGEL", "result": 0.4945},
      {"measurement": "mean normalized intensity (log format), gene: Human platelet-derived growth factor alpha-receptor (PDGFRA) mRNA, exons 13-16", "setting": "on MATRIGEL", "result": 2.445},
      {"measurement": "mean normalized intensity (log format), gene: KIAA1151 protein", "setting": "on MATRIGEL", "result": 0.6425},
      {"measurement": "mean normalized intensity (log format), gene: caldesmon 1", "setting": "on MATRIGEL", "result": 7.092},
      {"measurement": "mean normalized intensity (log format), gene: nuclear receptor subfamily 1, group I, member 3", "setting": "on MATRIGEL", "result": 1.779},
      {"measurement": "mean normalized intensity (log format), gene: paternally expressed 3 (r2033)", "setting": "on MATRIGEL", "result": 2.876},
      {"measurement": "mean normalized intensity (log format), gene: paternally expressed 3 (r2093)", "setting": "on MATRIGEL", "result": 2.874},
      {"measurement": "mean normalized intensity (log format), gene: DKFZP566K1924 protein", "setting": "on MEFS", "result": 1.391},
      {"measurement": "mean normalized intensity (log format), gene: ESTs (r2006)", "setting": "on MEFS", "result": "−1.3"},
      {"measurement": "mean normalized intensity (log format), gene: ESTs (r2025)", "setting": "on MEFS", "result": 1.373},
      {"measurement": "mean normalized intensity (log format), gene: ESTs (r2032)", "setting": "on MEFS", "result": "−1.566"},
      {"measurement": "mean normalized intensity (log format), gene: ESTs (r2038)", "setting": "on MEFS", "result": 1.5682},
      {"measurement": "mean normalized intensity (log format), gene: ESTs (r2134)", "setting": "on MEFS", "result": "−0.9461"},
      {"measurement": "mean normalized intensity (log format), gene: ESTs (r2148)", "setting": "on MEFS", "result": 5.334},
      {"measurement": "mean normalized intensity (log format), gene: ESTs, Moderately similar to ALU2_HUMAN ALU SUBFAMILY SB SEQUENCE CONTAMINATION WARNING ENTRY (H. sapiens)", "setting": "on MEFS", "result": 3.874},
      {"measurement": "mean normalized intensity (log format), gene: H. sapiens mRNA for B-HLH DNA binding protein.", "setting": "on MEFS", "result": 3.451},
      {"measurement": "mean normalized intensity (log format), gene: Homo sapiens BCL2-interacting killer (apoptosis-inducing) (BIK), mRNA.", "setting": "on MEFS", "result": 3.562},
      {"measurement": "mean normalized intensity (log format), gene: Homo sapiens Charot-Leyden crystal protein (CLC), mRNA.", "setting": "on MEFS", "result": 2.1096},
      {"measurement": "mean normalized intensity (log format), gene: Homo sapiens HES-related repressor protein 1 HERP1 mRNA, complete cds.", "setting": "on MEFS", "result": 2.406},
      {"measurement": "mean normalized intensity (log format), gene: Homo sapiens HSPC156 protein (HSPC156), mRNA.", "setting": "on MEFS", "result": 1.296},
      {"measurement": "mean normalized intensity (log format), gene: Homo sapiens KIAA0469 gene product (KIAA0469), mRNA.", "setting": "on MEFS", "result": 2.565},
      {"measurement": "mean normalized intensity (log format), gene: Homo sapiens PNAS-123 mRNA, complete cds", "setting": "on MEFS", "result": 1.847},
      {"measurement": "mean normalized intensity (log format), gene: Homo sapiens Wilms tumor 1 (WT1), transcript variant D, mRNA.", "setting": "on MEFS", "result": "−2.435"},
      {"measurement": "mean normalized intensity (log format), gene: Homo sapiens cDNA FLJ11398 fis, clone HEMBA1000637.", "setting": "on MEFS", "result": 1.849},
      {"measurement": "mean normalized intensity (log format), gene: Homo sapiens cDNA: FLJ22547 fis, clone HSI00356", "setting": "on MEFS", "result": 2.095},
      {"measurement": "mean normalized intensity (log format), gene: Homo sapiens cadherin 6, type 2, K-cadherin (fetal kidney) (CDH6), mRNA.", "setting": "on MEFS", "result": "−0.8763"},
      {"measurement": "mean normalized intensity (log format), gene: Homo sapiens chorionic somatomammotropin hormone 2 (CSH2), transcript variant 1, mRNA.", "setting": "on MEFS", "result": 2.616},
      {"measurement": "mean normalized intensity (log format), gene: Homo sapiens chorionic somatomammotropin hormone 2 (CSH2), transcript variant 4, mRNA.", "setting": "on MEFS", "result": 2.218},
      {"measurement": "mean normalized intensity (log format), gene: Homo sapiens galanin receptor 1 (GALR1), mRNA.", "setting": "on MEFS", "result": "−0.338"},
      {"measurement": "mean normalized intensity (log format), gene: Homo sapiens growth hormone 2 (GH2), transcript variant 2, mRNA.", "setting": "on MEFS", "result": 1.4679},
      {"measurement": "mean normalized intensity (log format), gene: Homo sapiens hypothetical protein FLJ20075 (FLJ20075), mRNA.", "setting": "on MEFS", "result": "−0.06528"},
      {"measurement": "mean normalized intensity (log format), gene: Homo sapiens mRNA for SCCA2b, complete cds.", "setting": "on MEFS", "result": 0.568},
      {"measurement": "mean normalized intensity (log format), gene: Homo sapiens mRNA; cDNA DKFZp586P1124 (from clone DKFZp586P1124)", "setting": "on MEFS", "result": "−3.094"}
    ]}
  ]
}
